Test results as given in patent US20150289513A1, “USE OF A COMPOUND COMPRISING A POLYFLUOROBENZYL MOIETY AGAINST INSECTICIDE-RESISTANT PESTS” (priority 2012, published 2015).

Key:
[1] = test system: Cimex Lectularius, strain Cincinnati (CIN-1); experiment: Spray test on bed bugs on glazed tile; assay type: in vivo; conditions: for Amount of animals that are knocked down/killed: 10 bed bugs
Description: To produce a suitable preparation Transfluthrin was dissolved in acetone in various concentrations (0.1 mg Transfluthrin/ml; 0.01 mg Transfluthrin/ml and 0.001 mg Transfluthrin/ml). Efficacy tests were done by placing 10 bed bug test animals (Cimex Lectularius, strain Cincinnati (CIN-1)) onto a glazed tile. The prepared solutions in various concentractions were sprayed with a glass nozzle onto the bed bugs on the glazed tile. After spraying the bed bugs were transferred to plastic cups. 5 minutes, 10 minutes, 15 minutes, 20 minutes, 0.5 hour, 1 hour, 2 hour, 4 hour and 24 hours after the treatment, the knock-down proportion of the test animals was determined.

[2] = test system: Anopheles gambiae (strain: Tiassalé); experiment: Glazed tile contact test, knock-down; assay type: in vivo
Description: To produce a suitable preparation Transfluthrin was dissolved in acetone. The active compound solution was pipetted onto a glazed tile and, after drying, adult mosquitoes of the species: • Anopheles gambiae (target-site-resistant and metabolic-resistant strain: RSPH), • Anopheles gambiae (target-site-resitant and metabolic-resistant strain: Tiassalé), • Anopheles gambiae (tar et-site-resitant and metabolic-resistant strain: Akron), • Anopheles gambiae (target-site-resistant strain: VK7), and • Anopheles funestus (metabolic-resistant strain FUMOZ-R) were placed onto the treated tile (each strain was tested on separate tiles). The exposition time was 30 minutes.
0.25 hours, 0.5 hours, 1 hour, 2 hour, 3 hour, 4 hour and 24 hours after contact to the treated surface, the knock-down proportion of the test animals in % was determined. Here, 100% (effect) means that all mosquitoes have been killed; 0% (effect) means that none of the mosquitoes have been killed.

For `CC1(C)[C@H](C=C(Cl)Cl)[C@H]1C(=O)OCc1c(F)c(F)cc(F)c1F` [Transfluthrin, (1R,3S)-3-(2,2-Dichlorovinyl)-2,2-dimethyl-1-cyclopropanecarboxylic acid (2,3,5,6-tetrafluorophenyl)methyl ester], the “Amount of animals that are knocked down/killed” value ([1]; 0.001 mg Transfluthrin/ml Aceton, 10 min after spray) was 0, the “Amount of animals that are knocked down/killed” value ([1]; 0.001 mg Transfluthrin/ml Aceton, 15 min after spray) was 0 and the “Amount of animals that are knocked down/killed” value ([1]; 0.001 mg Transfluthrin/ml Aceton, 20 min after spray) was 0. For the same molecule, the “Amount of animals that are knocked down/killed” value ([1]; 0.001 mg Transfluthrin/ml Aceton, 30 min after spray) was 0, the “Amount of animals that are knocked down/killed” value ([1]; 0.001 mg Transfluthrin/ml Aceton, 60 min after spray) was 1 and the “Amount of animals that are knocked down/killed” value ([1]; 0.001 mg Transfluthrin/ml Aceton, 120 min after spray) was 1. The “Amount of animals that are knocked down/killed” value ([1]; 0.001 mg Transfluthrin/ml Aceton, 240 min after spray) was 0, the “Amount of animals that are knocked down/killed” value ([1]; 0.001 mg Transfluthrin/ml Aceton, 1440 min after spray) was 3 and the “Amount of animals that are knocked down/killed” value ([1]; 0.01 mg Transfluthrin/ml Aceton, 10 min after spray) was 6. The “Amount of animals that are knocked down/killed” value ([1]; 0.01 mg Transfluthrin/ml Aceton, 15 min after spray) was 9, the “Amount of animals that are knocked down/killed” value ([1]; 0.01 mg Transfluthrin/ml Aceton, 20 min after spray) was 10 and the “Amount of animals that are knocked down/killed” value ([1]; 0.01 mg Transfluthrin/ml Aceton, 30 min after spray) was 10. For the same molecule, the “Amount of animals that are knocked down/killed” value ([1]; 0.01 mg Transfluthrin/ml Aceton, 60 min after spray) was 10, the “Amount of animals that are knocked down/killed” value ([1]; 0.01 mg Transfluthrin/ml Aceton, 120 min after spray) was 10 and the “Amount of animals that are knocked down/killed” value ([1]; 0.01 mg Transfluthrin/ml Aceton, 240 min after spray) was 10. For the same molecule, the “Amount of animals that are knocked down/killed” value ([1]; 0.01 mg Transfluthrin/ml Aceton, 1440 min after spray) was 7, the “Amount of animals that are knocked down/killed” value ([1]; 0.1 mg Transfluthrin/ml Aceton, 10 min after spray) was 9 and the “Amount of animals that are knocked down/killed” value ([1]; 0.1 mg Transfluthrin/ml Aceton, 15 min after spray) was 10. For the same molecule, the “Amount of animals that are knocked down/killed” value ([1]; 0.1 mg Transfluthrin/ml Aceton, 20 min after spray) was 10, the “Amount of animals that are knocked down/killed” value ([1]; 0.1 mg Transfluthrin/ml Aceton, 30 min after spray) was 10 and the “Amount of animals that are knocked down/killed” value ([1]; 0.1 mg Transfluthrin/ml Aceton, 60 min after spray) was 10. The “Amount of animals that are knocked down/killed” value ([1]; 0.1 mg Transfluthrin/ml Aceton, 120 min after spray) was 10, the “Amount of animals that are knocked down/killed” value ([1]; 0.1 mg Transfluthrin/ml Aceton, 240 min after spray) was 10 and the “Amount of animals that are knocked down/killed” value ([1]; 0.1 mg Transfluthrin/ml Aceton, 1440 min after spray) was 9. For the same molecule, the “Efficiency against insecticide-resistant bed bug strain” value ([1]; in vivo) was “efficient”, the Effect % ([2]; 0.064 g/ha, 0.25 h after contact) was 5% and the Effect % ([2]; 0.064 g/ha, 0.5 h after contact) was 10%. It also gave an Effect % ([2]; 0.064 g/ha, 1 h after contact) of 15%, an Effect % ([2]; 0.064 g/ha, 2 h after contact) of 15% and an Effect % ([2]; 0.064 g/ha, 3 h after contact) of 15%. For the same molecule, the Effect % ([2]; 0.064 g/ha, 4 h after contact) was 10%, the Effect % ([2]; 0.064 g/ha, 24 h after contact) was 20% and the Effect % ([2]; 0.32 g/ha, 0.25 h after contact) was 5%. For the same molecule, the Effect % ([2]; 0.32 g/ha, 0.5 h after contact) was 15%, the Effect % ([2]; 0.32 g/ha, 1 h after contact) was 5% and the Effect % ([2]; 0.32 g/ha, 2 h after contact) was 10%. It also gave an Effect % ([2]; 0.32 g/ha, 3 h after contact) of 10%, an Effect % ([2]; 0.32 g/ha, 4 h after contact) of 10% and an Effect % ([2]; 0.32 g/ha, 24 h after contact) of 15%. It also gave an Effect % ([2]; 1.6 g/ha, 0.25 h after contact) of 0%, an Effect % ([2]; 1.6 g/ha, 0.5 h after contact) of 15% and an Effect % ([2]; 1.6 g/ha, 1 h after contact) of 10%. The Effect % ([2]; 1.6 g/ha, 2 h after contact) was 5%, the Effect % ([2]; 1.6 g/ha, 3 h after contact) was 5% and the Effect % ([2]; 1.6 g/ha, 4 h after contact) was 0%. The Effect % ([2]; 1.6 g/ha, 24 h after contact) was 10%, the Effect % ([2]; 8 g/ha, 0.25 h after contact) was 90% and the Effect % ([2]; 8 g/ha, 0.5 h after contact) was 100%. For the same molecule, the Effect % ([2]; 8 g/ha, 1 h after contact) was 100%, the Effect % ([2]; 8 g/ha, 2 h after contact) was 85% and the Effect % ([2]; 8 g/ha, 3 h after contact) was 80%. For the same molecule, the Effect % ([2]; 8 g/ha, 4 h after contact) was 85%, the Effect % ([2]; 8 g/ha, 24 h after contact) was 60% and the Effect % ([2]; 40 g/ha, 0.25 h after contact) was 100%. For the same molecule, the Effect % ([2]; 40 g/ha, 0.5 h after contact) was 100%, the Effect % ([2]; 40 g/ha, 1 h after contact) was 100% and the Effect % ([2]; 40 g/ha, 2 h after contact) was 95%. For the same molecule, the Effect % ([2]; 40 g/ha, 3 h after contact) was 90%, the Effect % ([2]; 40 g/ha, 4 h after contact) was 85% and the Effect % ([2]; 40 g/ha, 24 h after contact) was 85%. The Effect % ([2]; 200 g/ha, 0.25 h after contact) was 100%, the Effect % ([2]; 200 g/ha, 0.5 h after contact) was 100% and the Effect % ([2]; 200 g/ha, 1 h after contact) was 100%. For the same molecule, the Effect % ([2]; 200 g/ha, 2 h after contact) was 100%, the Effect % ([2]; 200 g/ha, 3 h after contact) was 100% and the Effect % ([2]; 200 g/ha, 4 h after contact) was 100%. It also gave an Effect % ([2]; 200 g/ha, 24 h after contact) of 85%.
